Data as given in ChEMBL document CHEMBL3885881, “DrugMatrix”.

Species: Rattus norvegicus
Assay: DrugMatrix - Regimen: Daily Repeat
Format: toxicity, organism-based, Sprague-Dawley
Set-up: regimen Daily Repeat, gender Male, age 6-8 weeks
Settings: in vivo, po, […], route oral GAVAGE; for ABSOLUTE BASOPHIL / ABSOLUTE EOSINOPHIL / ABSOLUTE LYMPHOCYTE / ABSOLUTE MONOCYTE / ABSOLUTE SEGMENTED NEUTROPHIL / BASOPHIL / EOSINOPHIL / ERYTHROCYTE COUNT / HEMATOCRIT / HEMOGLOBIN / LEUKOCYTE COUNT / LYMPHOCYTE / MEAN CORPUSCULAR HEMOGLOBIN / MEAN CORPUSCULAR HEMOGLOBIN CONCENTRATION / MEAN CORPUSCULAR VOLUME / MONOCYTE / NEUTROPHIL / NUCLEATED RED BLOOD CELLS / PLATELET COUNT: tissue Blood; for ALANINE AMINOTRANSFERASE / ALBUMIN / ALKALINE PHOSPHATASE / ASPARTATE AMINOTRANSFERASE / BLOOD UREA NITROGEN / CARBON DIOXIDE / CHLORIDE / CHOLESTEROL / CREATINE PHOSPHOKINASE / CREATININE / GLUCOSE / LACTATE DEHYDROGENASE / LIPASE / PHOSPHORUS / POTASSIUM / SODIUM / TOTAL BILIRUBIN / TOTAL PROTEIN / URIC ACID: tissue Plasma
[1] = 130 mg/kg, dose level Low, time 7 day
[2] = 500 mg/kg, 72 h, dose level High, time 3 day
[3] = 500 mg/kg, dose level High, time 7 day

## CCOC(=O)C(C)(C)Oc1ccc(Cl)cc1 [CLOFIBRATE]
[1]
  ABSOLUTE BASOPHIL: 0 CELLS/uL
  ABSOLUTE EOSINOPHIL: 21.17 CELLS/uL
  ABSOLUTE LYMPHOCYTE: 6867.67 CELLS/uL
  ABSOLUTE MONOCYTE: 104.17 CELLS/uL
  ABSOLUTE SEGMENTED NEUTROPHIL: 707 CELLS/uL
  BASOPHIL: 0%
  EOSINOPHIL: 0.17%
  ERYTHROCYTE COUNT: 5.45 x10E6/uL
  HEMATOCRIT: 34%
  HEMOGLOBIN: 13.12 G/DL
  LEUKOCYTE COUNT: 7.7 x10E3/uL
  LYMPHOCYTE: 90.17%
  MEAN CORPUSCULAR HEMOGLOBIN: 24.08 pg
  MEAN CORPUSCULAR HEMOGLOBIN CONCENTRATION: 38.57 G/DL
  MEAN CORPUSCULAR VOLUME: 62.45 fL
  MONOCYTE: 1.17%
  NEUTROPHIL: 8.5%
  NUCLEATED RED BLOOD CELLS: 0 /100WBC
  PLATELET COUNT: 1220 x10E3/uL
  ALANINE AMINOTRANSFERASE: 65.83 u/L
  ALBUMIN: 4.38 G/DL
  ALKALINE PHOSPHATASE: 251.5 u/L
  ASPARTATE AMINOTRANSFERASE: 76.33 u/L
  BLOOD UREA NITROGEN: 14.33 mg/dL
  CARBON DIOXIDE: 30.5 mmol/L
  CHLORIDE: 104.5 MEQ/L
  CHOLESTEROL: 60.5 mg/dL
  CREATINE PHOSPHOKINASE: 323.5 u/L
  CREATININE: 0.21 mg/dL
  GLUCOSE: 149.17 mg/dL
  LACTATE DEHYDROGENASE: 102.17 u/L
  LIPASE: 9.67 u/L
  PHOSPHORUS: 10.73 mg/dL
  POTASSIUM: 5.56 MEQ/L
  SODIUM: 146.55 MEQ/L
  TOTAL BILIRUBIN: 0.1 mg/dL
  TOTAL PROTEIN: 6.07 G/DL
  URIC ACID: 0.98 mg/dL
[2]
  ABSOLUTE BASOPHIL: 0 CELLS/uL
  ABSOLUTE EOSINOPHIL: 0 CELLS/uL
  ABSOLUTE LYMPHOCYTE: 11363.33 CELLS/uL
  ABSOLUTE MONOCYTE: 222.5 CELLS/uL
  ABSOLUTE SEGMENTED NEUTROPHIL: 1180.83 CELLS/uL
  BASOPHIL: 0%
  EOSINOPHIL: 0%
  ERYTHROCYTE COUNT: 5.54 x10E6/uL
  HEMATOCRIT: 33.68%
  HEMOGLOBIN: 13.67 G/DL
  LEUKOCYTE COUNT: 12.77 x10E3/uL
  LYMPHOCYTE: 89%
  MEAN CORPUSCULAR HEMOGLOBIN: 24.72 pg
  MEAN CORPUSCULAR HEMOGLOBIN CONCENTRATION: 40.7 G/DL
  MEAN CORPUSCULAR VOLUME: 60.78 fL
  MONOCYTE: 1.67%
  NEUTROPHIL: 9.33%
  NUCLEATED RED BLOOD CELLS: 0 /100WBC
  PLATELET COUNT: 1039.67 x10E3/uL
  ALANINE AMINOTRANSFERASE: 88.83 u/L
  ALBUMIN: 4.27 G/DL
  ALKALINE PHOSPHATASE: 424.33 u/L
  ASPARTATE AMINOTRANSFERASE: 162 u/L
  BLOOD UREA NITROGEN: 18 mg/dL
  CARBON DIOXIDE: 26.83 mmol/L
  CHLORIDE: 103.5 MEQ/L
  CHOLESTEROL: 32.5 mg/dL
  CREATINE PHOSPHOKINASE: 350.5 u/L
  CREATININE: 0.19 mg/dL
  GLUCOSE: 152.17 mg/dL
  LACTATE DEHYDROGENASE: 380 u/L
  LIPASE: 9.17 u/L
  PHOSPHORUS: 9.13 mg/dL
  POTASSIUM: 6.05 MEQ/L
  SODIUM: 141.43 MEQ/L
  TOTAL BILIRUBIN: 0.2 mg/dL
  TOTAL PROTEIN: 5.38 G/DL
  URIC ACID: 1.42 mg/dL
[3]
  ABSOLUTE BASOPHIL: 0 CELLS/uL
  ABSOLUTE EOSINOPHIL: 10.67 CELLS/uL
  ABSOLUTE LYMPHOCYTE: 6850.83 CELLS/uL
  ABSOLUTE MONOCYTE: 72 CELLS/uL
  ABSOLUTE SEGMENTED NEUTROPHIL: 433.17 CELLS/uL
  BASOPHIL: 0%
  EOSINOPHIL: 0.17%
  ERYTHROCYTE COUNT: 5.25 x10E6/uL
  HEMATOCRIT: 32.12%
  HEMOGLOBIN: 12.58 G/DL
  LEUKOCYTE COUNT: 7.37 x10E3/uL
  LYMPHOCYTE: 92.67%
  MEAN CORPUSCULAR HEMOGLOBIN: 23.97 pg
  MEAN CORPUSCULAR HEMOGLOBIN CONCENTRATION: 39.23 G/DL
  MEAN CORPUSCULAR VOLUME: 61.12 fL
  MONOCYTE: 1%
  NEUTROPHIL: 6.17%
  NUCLEATED RED BLOOD CELLS: 0 /100WBC
  PLATELET COUNT: 961.33 x10E3/uL
  ALANINE AMINOTRANSFERASE: 91 u/L
  ALBUMIN: 4.27 G/DL
  ALKALINE PHOSPHATASE: 368.83 u/L
  ASPARTATE AMINOTRANSFERASE: 131.17 u/L
  BLOOD UREA NITROGEN: 15.67 mg/dL
  CARBON DIOXIDE: 32 mmol/L
  CHLORIDE: 102 MEQ/L
  CHOLESTEROL: 52.67 mg/dL
  CREATINE PHOSPHOKINASE: 300.5 u/L
  CREATININE: 0.21 mg/dL
  GLUCOSE: 154.17 mg/dL
  LACTATE DEHYDROGENASE: 169.67 u/L
  LIPASE: 10.17 u/L
  PHOSPHORUS: 10.03 mg/dL
  POTASSIUM: 5.38 MEQ/L
  SODIUM: 143.68 MEQ/L
  TOTAL BILIRUBIN: 0.1 mg/dL
  TOTAL PROTEIN: 5.75 G/DL
  URIC ACID: 0.85 mg/dL
